This is an account of results in patent US20210061872A1 (PROTAGONIST THERAPEUTICS, published 2021).

The target of one data set is T1, human ferroportin (Homo sapiens, UniProt Q9NP59).
T1 construct: expressed in transfected cells
T1 sequence (Q9NP59 1-571): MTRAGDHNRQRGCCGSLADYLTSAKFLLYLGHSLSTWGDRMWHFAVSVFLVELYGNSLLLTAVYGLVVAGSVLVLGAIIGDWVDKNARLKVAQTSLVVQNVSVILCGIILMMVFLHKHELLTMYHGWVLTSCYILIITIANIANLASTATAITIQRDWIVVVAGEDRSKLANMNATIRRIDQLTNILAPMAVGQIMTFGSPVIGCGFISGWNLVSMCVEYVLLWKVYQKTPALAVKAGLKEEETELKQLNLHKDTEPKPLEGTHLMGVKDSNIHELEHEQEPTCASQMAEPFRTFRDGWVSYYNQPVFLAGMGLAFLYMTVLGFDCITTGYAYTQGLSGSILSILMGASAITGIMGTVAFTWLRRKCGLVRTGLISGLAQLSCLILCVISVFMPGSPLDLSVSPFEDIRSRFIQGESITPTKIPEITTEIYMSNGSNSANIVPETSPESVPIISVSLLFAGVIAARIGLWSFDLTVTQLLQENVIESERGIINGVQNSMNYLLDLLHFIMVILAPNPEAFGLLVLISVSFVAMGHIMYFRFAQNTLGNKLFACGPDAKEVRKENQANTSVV
The data set is described as follows: ferroportin-GFP internalization/degradation assay in HEK293 cells. The format is cell-based. Particulars: read-out: Potency EC50.

The next data set relates to PV patients. As to the kind of experiment: Phase 2 study in phlebotomy-requiring Polycythemia vera.
Data set [1] relates to Cynomolgus monkeys. The data set is described as follows: repeat-dose study, 13 weekly SC doses, limiting erythropoiesis. Type of data set: in vivo. An excerpt:
A cohort of animals (4/sex/group) were sacrificed on Day 92 (Main), and the remaining animals (2/sex/group) were sacrificed on Day 120 following a 35-day recovery period (Recovery).

The test system of a further data set is healthy subjects. The data set is described as follows: Phase I single dose study. Type of data set: in vivo, human. Particulars: 62 healthy subjects. An excerpt: Compound A is a hepcidin mimetic agent in clinical studies for multiple blood disorders.
Data set [2] has as its system patients with phlebotomy-dependent PV and splenomegaly. The settings on record: through week 32; 6 events with BAT; cited from earlier work.
A further data set deals with PV mice. The settings on record: cited from earlier work.
In data set [3] the test system is Cynomolgus monkeys. As to the kind of experiment: PK-PD experiment, serum iron (Cobas IRON2). Type of data set: in vivo. The protocol: Iron content in plasma/serum was measured using a colorimetric assay on the Cobas c 111 according to instructions from the manufacturer of the assay (assay: IRON2: ACN 661).
Data set [4] addresses T2, human ferroportin (SLC40A1) fused in frame with GFP, stably expressed on HEK293 cells (human, UniProt Q9NP59 1-571).
T2 sequence (looked up): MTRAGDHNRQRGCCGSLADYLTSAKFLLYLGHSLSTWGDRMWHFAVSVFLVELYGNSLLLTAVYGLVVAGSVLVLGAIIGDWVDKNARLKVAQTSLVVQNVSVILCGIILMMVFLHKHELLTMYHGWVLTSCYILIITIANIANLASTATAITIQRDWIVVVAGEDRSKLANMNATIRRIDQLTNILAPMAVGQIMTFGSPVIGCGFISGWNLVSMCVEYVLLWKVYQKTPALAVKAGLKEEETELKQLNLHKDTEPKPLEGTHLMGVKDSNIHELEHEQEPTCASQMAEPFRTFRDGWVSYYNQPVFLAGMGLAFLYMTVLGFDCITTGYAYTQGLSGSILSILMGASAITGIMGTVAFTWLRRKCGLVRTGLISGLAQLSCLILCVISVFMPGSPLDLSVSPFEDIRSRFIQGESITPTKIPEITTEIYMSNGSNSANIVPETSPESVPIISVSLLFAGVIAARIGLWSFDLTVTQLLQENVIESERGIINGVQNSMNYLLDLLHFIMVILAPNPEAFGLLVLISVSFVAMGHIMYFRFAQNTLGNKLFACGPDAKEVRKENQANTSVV
The data set is described as follows: cell-based or functional assay.

Setting [5] is: SC doses of 10 mg to 80 mg, various times after dosing.

Excerpt for PV patients: Eligible patients were enrolled in the 28-week dose finding part of the Phase 2 trial. […] Body iron status was quantified by monitoring serum ferritin, serum iron, transferrin saturation (TSAT), mean corpuscular volume (MCV) and mean corpuscular hemoglobin (MCH).

The term EC50 denotes the midpoint of the concentration-response curve. With `CC[C@@H](C)[C@@H](NC(=O)[C@H](N)Cc1ccccc1)C(=O)N[C@H](CS)C(=O)N[C@@H](C(=O)N1CCC[C@@H]1C(=O)N[C@H](Cc1ccccc1)C(=O)N[C@H](Cc1c[nH]cn1)C(=O)N[C@@H](C(=O)N[C@H](CC(=O)O)C(N)=O)[C@H](C)O)[C@H](C)CC` [RI-Mini Hepcidin, Hy-DPhe-DIle-DCys-DIle-DPro-DPhe-DHis-DThr-DAsp-NH2], the EC50 on human ferroportin is over 10 µM.
For the molecule `CCCCCCCCCCCCCCCC(=O)N[C@@H](CCC(=O)NCCCC[C@@H]1NC(=O)[C@H]([C@@H](C)CC)NC(=O)[C@@H](NC(=O)[C@@H]2CCCN2C(=O)[C@H](Cc2ccccc2)NC(=O)[C@H](Cc2c[nH]cn2)NC(=O)[C@@H](NC(=O)[C@H](CC(=O)O)NC(=O)CC(C)C)[C@@H](C)O)CSSC[C@@H](C(=O)N[C@@H](CCCCN)C(N)=O)NC(=O)CNC(=O)[C@H](CCCCN)NC(=O)[C@H](CO)NC(=O)[C@H](CCCNC(=N)N)NC(=O)[C@@H]2CCCN2C(=O)[C@H](CCC(=O)O)NC(=O)[C@H](Cc2ccccc2)NC1=O)C(=O)O` [Compound A], in the data set with PV patients (10-80 mg SC weekly), the “most frequent adverse events” value is recorded as “injection site reaction (ISR) reported by three patients” and the tolerability result is on record as “well tolerated”. Further, in the data set with PV patients (setting [5]), the “plasma concentrations of Compound A, lower end of range (below detectable)” value is under 0.002 µg/mL and the “plasma concentrations of Compound A, upper end of range” value is 0.866 µg/mL. Besides, the platelet counts result with PV patients (over the course of treatment, FIG. 14) is “remained generally steady”. Also, in the data set on PV patients (over the course of treatment, FIG. 16), the leukocyte count entry was “remained generally steady”. Also, the “grade of most injection site reactions” value with PV patients (transient, no patient discontinued) is listed as 1-2 grade. Further, in the data set with Cynomolgus monkeys [1] (6 mg/kg/dose, male and female, FIG. 5), the platelets result is listed as “significantly elevated levels of platelets”. In addition, in the data set on Cynomolgus monkeys [1] (at ≥2 mg/kg/day, treatment period, FIG. 4), the “total bilirubin (tBili)” value was “increase in total bilirubin”. In the data set with Cynomolgus monkeys [1] (at ≥2 mg/kg/dose), the “bone marrow (femur, sternum) findings” value is on record as “hematopoietic hypercellularity occurred in bone marrow”; the “liver and spleen findings” value was “extramedullary hematopoiesis and hemosiderin deposition was observed in the liver and spleen”. Also, the adverse events entry in the data set on healthy subjects was “without significant adverse events”.
Take `N#CC[C@H](C1CCCC1)n1cc(-c2ncnc3[nH]ccc23)cn1` [ruxolitinib]: the thromboembolic events in data set [2] is listed as 1 event.
As to “minihepcidin: hepcidin mimetic administered to PV mice in Casu et al., Blood 2016 (DTHFPICIF)”, in the data set with PV mice, the hematocrit entry is “normalizes hematocrit” and the splenomegaly result is recorded as “significantly reduces splenomegaly”.
Consider “Isovaleric acid-DTHFPCIKF(K(PEG11-Palm))PRSK[Sar]CK-NH2 [Compound B]”, for which the “time of maximal serum iron reduction” value in the data set with Cynomolgus monkeys [3] (2.93 mg/kg SC) was “about 12 hour”. Further, the “serum iron reduction, lower than pre-dose levels” value in the data set with Cynomolgus monkeys [3] (2.93 mg/kg SC, at about 12 hour) was found to be 12 fold. Further, in the data set on Cynomolgus monkeys [3] (SC single dose), the “serum concentrations having maximum effect on serum iron” value lay within 50 to 125 ng/mL and the “serum concentrations that were effective on serum iron” value lay within 25 to 125 ng/mL.

B1: RI-Mini Hepcidin (peptide)
peptide: FICIPFHTD
modifications: all residues are D-amino acids (Hy-DPhe-DIle-DCys-DIle-DPro-DPhe-DHis-DThr-DAsp-NH2); C-terminal amide
For B1, the “Potency EC50 (nM); ferroportin internalization/degradation, decrease in GFP fluorescence of ferroportin-GFP HEK293 cells” value in data set [4] was over 10000 nM.
The same measure, in the same setting: for H-DTHFPICIF-NH2 [Mini-Hepcidin] the value was 712 nM.
